Source: a melting point compilation (Tetko et al.; mined from patent text by program, amines drawn as free bases though some values may be those of a salt)

SMILES	melting point [°C]
CC(C)c1cccc(C(C)C)c1NC(=O)CNC(c1ccccc1)c1ccc(Br)cc1 (stereo unspecified)	154 to 155
NC(=O)CC1(c2ccccc2)C(=O)Nc2ccc(Cl)cc21 (stereo unspecified)	247 to 248
Fc1ccc(Cc2ccccc2N2CCN(c3ccncc3)CC2)cc1	110 to 111
CCOC(=O)c1cc2cc(OCCN(C)C)ccc2[nH]1	110
CN(C)n1cc(C(=O)NCc2ccc(Cl)cc2)c(=O)c2ccccc21	170 to 172
CC1(c2ccccc2)Cc2cc(OCC(=O)O)c(Cl)c(Cl)c2C1=O (stereo unspecified)	168 to 169
C#CCCCc1c2c3c(nc(N)c2nn1CCC)CCCC3	167 to 169
CCC(=O)Nc1ccnn1-c1c(Cl)cc(Cl)cc1Cl	125
COc1cccc2c1CC(C(=O)NCCOc1ccc(C(=O)O)cc1)N2S(=O)(=O)c1ccc(-c2ccc(F)cc2Cl)cc1 (stereo unspecified)	190 to 204
NC(=O)NC[C@@H]1CCCc2cc(Sc3cccc(F)c3)cc(F)c21	131 to 132
Nc1nc2ccccc2n1CCCN1CCCCC1	179 to 181
N=c1sc2cc(OC(F)(F)F)ccc2n1CCS(=O)c1ccccc1 (racemic)	210
N#Cc1ccc(N2C=CC(N)=C([N+](=O)[O-])C2)cc1	210 to 211
COc1ccc(C2Sc3cc(Cl)c(Cl)cc3N(CCN(C)C)C(=O)C2O)cc1 (stereo unspecified)	178 to 180
CNc1nc(-c2cccc(-c3ccc(SC)cc3)c2)c2cc(OC)c(OC)cc2n1	140 to 142
N#Cc1c([N+](=O)[O-])ccc(Cl)c1CBr	89
CCCC(=O)NN=C(c1ccc(Cl)cc1)c1ccc(OC(F)F)cc1	114 to 125
COc1ccc(-c2ccc(C(=O)Nc3ccc4cc(CN5CCCC5)cnc4c3F)c(F)c2)cc1	182 to 183
CCC1(C(=O)OC)C(=O)Nc2cccc(Cl)c2CC1c1ccc(OC)cc1 (stereo unspecified)	190 to 192
CCN(CC)CCNc1cc(Cl)c(N)c(CCN(CC)CC)c1[N+](=O)[O-]	90

SMILES	melting point [°C]
O=C(N=CNO)c1nccc2c1[nH]c1ccccc12	235 to 240
CON=C(C(C)=NN=Cc1ccccc1-n1c(OC)nn(C)c1=O)c1cccc(C(F)(F)F)c1	157 to 161
O=C1NCCSc2ccsc21	186 to 188
O=C(O)c1ccc(OCC2CCCCC2)c([N+](=O)[O-])c1	200 to 202
CCCCCCCCCN=C=O	104 to 105
COc1ccc(-c2cc(=O)n(CCN3CCOCC3)nc2-c2ccc(OC)cc2)cc1	145 to 146
CS(=O)(=O)c1ccc(-c2nc(C(F)(F)F)nc(Cl)c2-c2ccc(Cl)cc2)cc1	188 to 190
COC(=O)N(Cc1nc(-c2ccccc2)c(-c2ccccc2)o1)c1cccc(OCC(=O)O)c1	153 to 155
CCCc1c(C(=O)C(C)C)c2ccc(C(=O)O)cc2n1Cc1ccccc1C#N	214 to 215
Cc1nc(-n2cc(CCCc3ccccc3)nn2)sc1C(=O)NCc1ccc(F)c(F)c1	81 to 84
Cc1c(Br)cccc1NS(=O)(=O)c1cc(S(=O)(=O)Nc2cccc(Br)c2C)c2ccccc2c1O	246 to 248
O=C(Nc1ccc(Oc2ccnc(N3CCCCC3)n2)c2ccccc12)c1cc(F)cc(N2CCOCC2)c1	190 to 191
CCOC(=O)C1(c2ccccc2)CCN(C2CCC(C#N)(c3ccccn3)CC2)CC1 (stereo unspecified)	157
CCOC(=O)c1cn(N(C)C)c2ccccc2c1=O	119 to 120
CC(C)(C)OC(=O)N[C@H]1CCCCNC1=O	147 to 149
O=C1CCCOc2ccc(OCc3ccccc3)cc21	62 to 63
COc1cc2c(O)c3c(c(-c4ccc5c(c4)OCO5)c2cc1OC)C(=O)OC3	280 to 282
COC(=O)Cc1ccc(OCCNC(=O)C2Cc3ccccc3N2S(=O)(=O)c2ccc(-c3cc(C(F)(F)F)ccc3Cl)cc2)c(F)c1 (stereo unspecified)	56 to 62
O=C1CS(=O)c2ccccc2N1 (stereo unspecified)	184 to 186

Further lines, results first:

melting point [°C]	SMILES
250 to 252	CNC(=O)c1cn2c(C)c(C)nc2c(O)c1CC[C@@H](O)c1ccccc1
102 to 103	COC(=O)[C@@H]1C[C@@H](OS(C)(=O)=O)CN1C(=O)C1(C)CC1
132 to 134	CN(O)C(=O)C(=Cc1ccc2ccccc2c1)c1ccc(F)cc1
130 to 131	N#CCc1cccc2cnccc12
169 to 171	Cc1cc(Cl)nnc1-c1cccc([N+](=O)[O-])c1
88 to 89	CN(c1cc(Cl)ncn1)n1cccc1
243 to 245	N#Cc1ccc2c(c1)NC(=O)CO2
90	O=C1CN(Cc2ccccn2)CC(=O)N1CCCN1CCN(c2ccc(F)cc2)CC1
> 200	Cc1nc(O)c([N+](=O)[O-])c(N2CCc3ccccc3CC2)n1
134 to 135	COC(=O)c1ccc(CN(C(CO)CO)S(=O)(=O)c2ccc(Cl)s2)cc1
66 to 67	CCCCCCCCc1ccc(OCC(=O)Cn2ncc3ccccc32)cc1
102 to 104	COC(=O)C(Oc1cc(OCc2ccsc2)ccc1C#N)c1ccccc1C (racemic)
229	NC(=O)c1ccc(F)c2c1CC(N)CO2 (stereo unspecified)
206 to 207	Cc1c(NC(=O)CC(C)(C)C)cc2c(c1C)OC(C)(C)C2(O)c1cccc(C(C)O)c1 (stereo unspecified)
194 to 196	CC1=N/C(=C\c2c[nH]c3cc(C)ccc23)C(=O)O1
244 to 245	N#Cc1ccc(-c2csc(-n3c(=O)oc4ccccc43)n2)cc1

melting point [°C]	SMILES
100 to 101	CON1C(=O)[C@H](Cc2c[nH]c3ccccc23)NC(=O)[C@@H]1CC(C)C
180 to 181	CN(C)S(=O)(=O)Oc1ccc2c(c1)CCC1C2CCC2(C)C(O)C(O)CC12 (stereo unspecified)
78 to 87	COc1cc2c(cc1Nc1ncc(Cl)c(Nc3ccccc3S(=O)(=O)N(C)C)n1)CCN(CCCN1CCOCC1)C(=O)C2
142	CC(Cc1ccc(Cl)cc1Cl)NC(=O)c1ccccc1C(F)(F)F (stereo unspecified)
106 to 107	N#Cn1c(=O)c2ccccc2n(CCCCN2CCC(OC(c3ccccc3)c3ccccc3)CC2)c1=O
116 to 117	CC(C(=O)O)c1ccc(-n2cc(Br)cn2)c(Cl)c1 (stereo unspecified)
132 to 133	COc1cc(COc2nn(-c3ccccc3)cc2CC(=O)N2CCOCC2)ccc1OCc1nc(-c2ccco2)oc1C
140 to 153	CC(C)(C)c1cc2c(c(C(C)(C)C)c1)OC(=O)C2c1ccc2c(c1)-c1ccccc1C2 (stereo unspecified)
174 to 176	NC1=Nc2ccccc2C2CCCC12F (stereo unspecified)
190	COC(=O)c1cc(NS(C)(=O)=O)c2cc(Cc3ccc(F)cc3)cnc2c1O
128 to 129	C#CCN1C(=O)CN(C)c2ccc(-c3ncc(C(F)(F)F)cc3Cl)cc21
177 to 180	CCOC(=O)C(=O)CC(=O)c1ccc2c(c1)c(=O)c(CCC(=O)O)cn2Cc1ccc(F)cc1
165	Nc1cscc1NC(=S)Nc1c(Cl)cccc1Cl
157 to 159	O=C(NC1CCN(CCCC2=CCc3ccccc32)CC1)c1ccccc1
120 to 121	O=C(O)CCc1ccc(SCc2coc(/C=C/c3ccccc3)n2)cc1
112 to 115	COc1cc2c(cc1OC)C(Oc1ccc(Cl)cc1)CN(C)C2 (stereo unspecified)
